Results from article PMC9776540, “Therapeutic Potential of a Water-Soluble Silver-Diclofenac Coordination Polymer on 3D Pancreatic Cancer Spheroids” (Journal of Medicinal Chemistry, 2022).

Legend:
PANC-1 [1] = test: MTT survival test, surviving fraction (Table S3); format: cell-based, human
Description: (§1) 24, and 72 h. After each incubation time, the cells were washed with PBS. Then, fresh medium (supplemented with 10% FSB) was added, and the cells were incubated under standard conditions for another 24 h (6h + 24h, 24h + 24h, 72h + 24h). After this time, the MTT survival test was done. Surviving fraction given in % was estimated with relation to untreated cells. In the case of 6h + 24h and 24h + 24h approaches, the cells were seeded at 10 000 cells per well, while in the case of 72h + 24h at […]

A549 [2] = test: MTT survival test, surviving fraction (Table S3); format: cell-based, human
Description: as §1

HaCat [3] = test: MTT survival test, surviving fraction (Table S3); format: cell-based, human
Description: as §1

DU-145 [4] = test: MTT survival test, surviving fraction (Table S3); format: cell-based, human
Description: as §1

MCF-7 = test: MTT survival test, surviving fraction (Table S3); format: cell-based, human
Description: as §1

human cell lines = conditions: up to a concentration of 100 μM
Description: (§2) MCF7 cell line (human breast adenocarcinoma, morphology: epithelial-like, ATCC: HTB-22), A549 cell […]
(§3) keratinocyte, morphology: epidermal, CSL Cell Lines Service GmbH); were cultured in Dulbecco’s Modified Eagle’s Medium (DMEM, Corning) with phenol red, supplemented with 10% fetal bovine serum (FBS) and with 1% streptomycin/penicillin. […]
(§4) from metastatic site: brain, ATCC: HTB-81) and MCR-5 cell line (primary line of human pulmonary […]
(§5) 10% fetal bovine serum (FBS). Cultures were incubated at 37 °C under a humidified atmosphere containing 5% CO2. Cells were transferred using a solution containing 0.05% trypsin and 0.5 mM EDTA.
(§6) All media and other ingredients were purchased from ALAB, Poland.
Cytotoxicity was assessed by MTT assay performed according the protocols described elsewhere.S1 In brief, 1×10^4 cells per well, seeded in 96-well flat bottom microtiter plate, were incubated with the tested compounds (in the appropriate media) at various range of concentrations for 24 h. […] After next 72 h cell viability was determined using the Hill equation (Origin 9.0) with regard to the untreated cells (control), where y0 – untreated cell control (which was set to 100% viability), y100 – a lysis control (where the cells were treated with 0.5% triton X-100 was set to 0% […]
Determined values of IC50 are given as mean + S.D. (Standard Deviation). […]

PANC-1 [5] = test: MTT cytotoxicity assay (IC50); format: cell-based, human; conditions: PANC-1, after 72 h incubation, MTT, vs untreated control cells; read-out: IC50
Description: as §2, §3, §4, §5, §6
(§7) Cytotoxicity was assessed by MTT assay performed according the protocols described elsewhere.S1 In brief, 1×10^4 cells per well, seeded in 96-well flat bottom microtiter plate, were incubated with the tested compounds (in the appropriate media) at various range of concentrations for 24 h. After that time, solutions of compounds were washed out, cells were washed three times with PBS and fresh medium was applied. After next 72 h cell viability was determined using the Hill equation (Origin 9.0) with regard to the untreated cells (control), where y0 – untreated cell control (which was set to 100% viability), y100 – a lysis control (where the cells were treated with 0.5% triton X-100 was set to 0% […]
(§8) [c] at which the viability of the cells reaches 50%, H – the Hill coefficient (describing cooperativity):
(§9) Each compound concentration was tested in five replicates and repeated at least three times.
(§10) Determined values of IC50 are given as mean + S.D. (Standard Deviation).
(§11) Cisplatin was tested as a reference anticancer drug. […]

A549 [6] = test: MTT cytotoxicity assay (IC50); format: cell-based, human; conditions: A549, after 72 h incubation, MTT, vs untreated control cells; read-out: IC50
Description: as §2, §3, §4, §5, §6, §7, §8, §9, §10, §11

HaCat [7] = test: MTT cytotoxicity assay (IC50); format: cell-based, human; conditions: HaCat normal cells, after 72 h incubation, MTT, vs untreated control cells; read-out: IC50
Description: as §2, §3, §4, §5, §6, §7, §8, §9, §10, §11

DU-145 [8] = test: MTT cytotoxicity assay (IC50); format: cell-based, human; conditions: DU-145, after 72 h incubation, MTT, vs untreated control cells; read-out: IC50
Description: as §2, §3, §4, §5, §6, §7, §8, §9, §10, §11

MCF7 = test: MTT cytotoxicity assay (IC50); format: cell-based, human; conditions: MCF7, after 72 h incubation, MTT, vs untreated control cells; read-out: IC50
Description: as §2, §3, §4, §5, §6, §7, §8, §9, §10, §11

MRC5 = test: MTT cytotoxicity assay (IC50); format: cell-based, human; conditions: MRC5 normal cells, after 72 h incubation, MTT, vs untreated control cells; read-out: IC50
Description: as §2, §3, §4, §5, §6, §7, §8, §9, §10, §11

O=[N+]([O-])[O-].[Ag+] [AgNO3, silver(I) nitrate]
surviving fraction (PANC-1 [1]; PANC-1, 6h + 24h, dil. 10 000x (stocks: diclofenac 0.918, PTA 0.483, AgNO3 0.326 mg/mL)): 76.2 ± 7.4% | surviving fraction (PANC-1 [1]; PANC-1, 6h + 24h, dil. 1000x (stocks: diclofenac 0.918, PTA 0.483, AgNO3 0.326 mg/mL)): 65.89 ± 4.6% | surviving fraction (PANC-1 [1]; PANC-1, 24h + 24h, dil. 10 000x (stocks: diclofenac 0.918, PTA 0.483, AgNO3 0.326 mg/mL)): 65.8 ± 6.6% | surviving fraction (PANC-1 [1]; PANC-1, 24h + 24h, dil. 1000x (stocks: diclofenac 0.918, PTA 0.483, AgNO3 0.326 mg/mL)): 44.2 ± 9.2% | surviving fraction (PANC-1 [1]; PANC-1, 72h + 24h, dil. 10 000x (stocks: diclofenac 0.918, PTA 0.483, AgNO3 0.326 mg/mL)): 65.8 ± 6.1% | surviving fraction (PANC-1 [1]; PANC-1, 72h + 24h, dil. 1000x (stocks: diclofenac 0.918, PTA 0.483, AgNO3 0.326 mg/mL)): 55.4 ± 6.7% | surviving fraction (A549 [2]; A549, 6h + 24h, dil. 10 000x (stocks: diclofenac 0.918, PTA 0.483, AgNO3 0.326 mg/mL)): 68.1 ± 6.2% | surviving fraction (A549 [2]; A549, 6h + 24h, dil. 1000x (stocks: diclofenac 0.918, PTA 0.483, AgNO3 0.326 mg/mL)): 48.9 ± 6.5% | surviving fraction (A549 [2]; A549, 24h + 24h, dil. 10 000x (stocks: diclofenac 0.918, PTA 0.483, AgNO3 0.326 mg/mL)): 57.4 ± 3.8% | surviving fraction (A549 [2]; A549, 24h + 24h, dil. 1000x (stocks: diclofenac 0.918, PTA 0.483, AgNO3 0.326 mg/mL)): 31.2 ± 5.5% | surviving fraction (A549 [2]; A549, 72h + 24h, dil. 10 000x (stocks: diclofenac 0.918, PTA 0.483, AgNO3 0.326 mg/mL)): 55.8 ± 8.1% | surviving fraction (A549 [2]; A549, 72h + 24h, dil. 1000x (stocks: diclofenac 0.918, PTA 0.483, AgNO3 0.326 mg/mL)): 34.1 ± 5.3% | surviving fraction (HaCat [3]; 6h + 24h, dil. 10 000x (stocks: diclofenac 0.918, PTA 0.483, AgNO3 0.326 mg/mL)): 88.1 ± 4.2% | surviving fraction (HaCat [3]; 6h + 24h, dil. 1000x (stocks: diclofenac 0.918, PTA 0.483, AgNO3 0.326 mg/mL)): 76.7 ± 6.8% | surviving fraction (HaCat [3]; 24h + 24h, dil. 10 000x (stocks: diclofenac 0.918, PTA 0.483, AgNO3 0.326 mg/mL)): 72.7 ± 8.1% | surviving fraction (HaCat [3]; 24h + 24h, dil. 1000x (stocks: diclofenac 0.918, PTA 0.483, AgNO3 0.326 mg/mL)): 41.6 ± 6.9% | surviving fraction (HaCat [3]; 72h + 24h, dil. 10 000x (stocks: diclofenac 0.918, PTA 0.483, AgNO3 0.326 mg/mL)): 70.5 ± 5.8% | surviving fraction (HaCat [3]; 72h + 24h, dil. 1000x (stocks: diclofenac 0.918, PTA 0.483, AgNO3 0.326 mg/mL)): 65.2 ± 6.3% | surviving fraction (DU-145 [4]; Du-145, 6h + 24h, dil. 10 000x (stocks: diclofenac 0.918, PTA 0.483, AgNO3 0.326 mg/mL)): 74.5 ± 8.8% | surviving fraction (DU-145 [4]; Du-145, 6h + 24h, dil. 1000x (stocks: diclofenac 0.918, PTA 0.483, AgNO3 0.326 mg/mL)): 62.87 ± 5.9% | surviving fraction (DU-145 [4]; Du-145, 24h + 24h, dil. 10 000x (stocks: diclofenac 0.918, PTA 0.483, AgNO3 0.326 mg/mL)): 58.8 ± 7.3% | surviving fraction (DU-145 [4]; Du-145, 24h + 24h, dil. 1000x (stocks: diclofenac 0.918, PTA 0.483, AgNO3 0.326 mg/mL)): 36.7 ± 7.1% | surviving fraction (DU-145 [4]; Du-145, 72h + 24h, dil. 10 000x (stocks: diclofenac 0.918, PTA 0.483, AgNO3 0.326 mg/mL)): 56.1 ± 5.9% | surviving fraction (DU-145 [4]; Du-145, 72h + 24h, dil. 1000x (stocks: diclofenac 0.918, PTA 0.483, AgNO3 0.326 mg/mL)): 42.8 ± 5.9% | surviving fraction (MCF-7; MCF-7, 6h + 24h, dil. 10 000x (stocks: diclofenac 0.918, PTA 0.483, AgNO3 0.326 mg/mL)): 59.2 ± 8.2% | surviving fraction (MCF-7; MCF-7, 6h + 24h, dil. 1000x (stocks: diclofenac 0.918, PTA 0.483, AgNO3 0.326 mg/mL)): 62.7 ± 6.3% | surviving fraction (MCF-7; MCF-7, 24h + 24h, dil. 10 000x (stocks: diclofenac 0.918, PTA 0.483, AgNO3 0.326 mg/mL)): 62.1 ± 5.5% | surviving fraction (MCF-7; MCF-7, 24h + 24h, dil. 1000x (stocks: diclofenac 0.918, PTA 0.483, AgNO3 0.326 mg/mL)): 38.5 ± 7.3% | surviving fraction (MCF-7; MCF-7, 72h + 24h, dil. 10 000x (stocks: diclofenac 0.918, PTA 0.483, AgNO3 0.326 mg/mL)): 56.8 ± 6.2% | surviving fraction (MCF-7; MCF-7, 72h + 24h, dil. 1000x (stocks: diclofenac 0.918, PTA 0.483, AgNO3 0.326 mg/mL)): 36.0 ± 8.4% | cytotoxic effect of free Ag(I) salt (human cell lines): does not cause significant toxic effects

N.N.[Cl][Pt][Cl] [cisplatin]
IC50 (PANC-1 [5]): 12.5 ± 1.3 µM | IC50 (A549 [6]): > 100 µM | IC50 (HaCat [7]): 26.4 ± 2.7 µM | IC50 (DU-145 [8]): > 100 µM | IC50 (MCF7): 50.9 ± 7.6 µM | IC50 (MRC5): 31.5 ± 4.1 µM
